In patent US12421254B2, “KRAS modulators and uses thereof” (Quanta Therapeutics, Inc., priority 2023, dated 2025):

Experiments:
[1] = system: phospho-ERK in SW620 (KRAS-G12V) cells; assay: pERK In Cell Western (ICW) assay (Method B), SW620; format: cell-based; conditions: Homo sapiens, SW-620, 3 h, Table 4
Procedure: pERK ICW is a high throughput screening assay to evaluate the cellular potency of mutant KRAS small molecule inhibitors. KRAS mutant cell lines AGS, GP2D (KRAS-G12D) as well as SW620 (KRAS-G12V) were purchased from ATCC and maintained respectively in RPMI/DMEM/RPMI medium supplemented with 10% fetal bovine serum.
Cells grown in exponential phase were trypsinized, resuspended in fresh media, and viable cells were counted using a cell counter with Trypan Blue (BioRad TC20). Cells were seeded into 384-well plate (Greiner 781091) at density of 5,000 cells/well for AGS and 10,000 cells/well for GP2D/SW620 and allowed to grow overnight in a 37° C. CO2 incubator. The next day, compounds were dispensed into wells with a ½ log, 9-point serial dilution using a Tecan D300e dispenser and incubated for 3 hours in a 37° C. CO2 incubator. Cells were then fixed with paraformaldehyde (Electron Microscopy Sciences, 15710, 4% final concentration) for 30 min, permeabilized with wash buffer (1×PBS+0.1% Triton X-100) for 30 min and blocked with Odyssey blocking buffer (Li—COR 927-70001) for 1 hour, all at room temperature (RT). Phospho-ERK antibody (CST 4370L) was diluted 1:500 in Odyssey T20 (PBS) antibody diluent (Li—COR 927-75001) and incubated with cells overnight at 4° C. The next day, plates were washed 5× with wash buffer, incubated with IRDye 800 CW, Goat anti-Rabbit secondary antibody (Li—COR 926-32211, 1:800) and DRAQ5 (CST 4084L, 1:5,000) diluted in Odyssey T20 (PBS) antibody diluent for 1 hour, washed 5×, and imaged on an Odyssey CLx imaging system.
For data analysis, signal intensities from 800 (phosphor-ERK) and 700 (DRAQ5) channels were extracted, and phospho-ERK signals were normalized to DRAQ5 signals for each well and percent of blank control values were computed. Data were then imported into Graphpad Prism to compute half-maximal inhibitory concentrations (IC50) using a 4-parameter variable slope model. Z-factor for each plate was computed from signals derived from wells treated with either DMSO or 5 μM of control compound. AGS pERK ICW (Method B) IC50 (uM) values of selected compounds are depicted in Table 2 with compounds having a value ≥0.001 uM to 0.01 uM as ++++; ≥0.01 uM to 0.1 uM as +++; ≥0.1 uM to 1 uM as ++; ≥1 uM to 10 uM as + and ≥10 uM as NA.

[2] = biological target: GST-tagged KRAS-G12D (2-169) (Homo sapiens, UniProt P01116, G12D); assay: Nucleotide exchange assay (NEA), SOS-mediated, HTRF, KRAS G12D; format: biochemical; conditions: Table 4; IC50 extracted at 30 min; 20 nM SOScat; read-out: NEA G12D IC50
Summary of the method: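 SOS1cat-driven loading of fluorescent GTP-DY-647P1 (150 nM) onto GST-KRAS-G12D (2-169, 0.25 nM) read by time-resolved FRET; SOScat 20 nM, compound preincubated with KRAS 1 h at RT. Signal blanked to no-SOS reactions, normalized to DMSO; IC50 fitted from the 30-min read.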

[3] = biological target: GST-tagged KRAS-G12V (2-169) (Homo sapiens, UniProt P01116, G12V); assay: Nucleotide exchange assay (NEA), SOS-mediated, HTRF, KRAS G12V; format: biochemical; conditions: Table 4; IC50 extracted at 90 min; 80 nM SOS
Summary of the method: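 Exchange onto fluorescent GTP-DY-647P1 (150 nM final) catalysed by 80 nM SOS1cat was followed by Tb-anti-GST HTRF at RT for up to 90 min, after 1 h compound pre-incubation with 0.25 nM GST-tagged KRAS-G12V (2-169), pH 7.3. DMSO = 0%, no-SOS blank = 100%; 4-parameter IC50 taken at 90 min.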

Sequence of GST-tagged KRAS-G12D (2-169) (P01116 2-169 isoform P01116-2 G12D): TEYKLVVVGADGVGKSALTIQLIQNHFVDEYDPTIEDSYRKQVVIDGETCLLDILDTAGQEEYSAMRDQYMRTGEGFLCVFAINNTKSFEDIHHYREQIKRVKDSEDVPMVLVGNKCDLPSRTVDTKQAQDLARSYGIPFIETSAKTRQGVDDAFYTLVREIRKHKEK
Sequence of GST-tagged KRAS-G12V (2-169) (P01116 2-169 isoform P01116-2 G12V): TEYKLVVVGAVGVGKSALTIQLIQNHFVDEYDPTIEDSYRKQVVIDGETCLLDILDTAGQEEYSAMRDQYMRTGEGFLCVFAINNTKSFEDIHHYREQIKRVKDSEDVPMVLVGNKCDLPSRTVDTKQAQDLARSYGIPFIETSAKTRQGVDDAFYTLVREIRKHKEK

Row | Compound | IC50 [1] [nM] | IC50 [2] [nM] | IC50 [3] [nM]
1 | N#Cc1c(N)sc2c1C1(CN(c3nc(OC[C@@]45CCCN4C[C@H](F)C5)nc(N(CCO)C4(C#N)CC4)n3)C1)SC2 (racemic) [Compound 240, 2-amino-1′-[4-[(1-cyanocyclopropyl)-(2-hydroxyethyl)amino]-6-[[rac-(2R,8S)-2-fluoro-1,2,3,5,6,7-hexahydropyrrolizin-8-yl]methoxy]-1,3,5-triazin-2-yl]spiro[6H-thieno[3,4-b]thiophene-4,3′-azetidine]-3-carbonitrile] | 10 to 100 | < 10 | < 10
2 | CC1(O)CCCN(c2nc(OCC34CCCN3C(COc3cc(C(F)(F)F)ncn3)CC4)nc(N3CC4(C3)SCc3sc(N)c(C#N)c34)n2)C1 (single isomer, unassigned) [Compound 256A] | 100 to 1000 | < 10 | < 10
3 | C[C@H](c1cccnc1N)N(C)c1nc(OC[C@@]23CCCN2C[C@H](F)C3)nc(N2CCC(c3c(Cl)sc(N)c3C#N)C2)n1 (stereo partly drawn) [Compound 191, 2-amino-4-[1-[4-[[(1R)-1-(2-amino-3-pyridyl)ethyl]-methyl-amino]-6-[[(2R,8S)-2-fluoro-1,2,3,5,6,7-hexahydropyrrolizin-8-yl]methoxy]-1,3,5-triazin-2-yl]pyrrolidin-3-yl]-5-chloro-thiophene-3-carbonitrile] | 10 to 100 | 10 to 100 | < 10
4 | N#Cc1c(N)sc2c1C1(CN(c3nc(OC[C@@]45CCCN4C[C@H](F)C5)nc(N4[C@H]5CC[C@]4(CO)COC5)n3)C1)SC2 [Compound 200, 2′-amino-1-(4-(((2R,7aS)-2-fluorotetrahydro-1H-pyrrolizin-7a(5H)-yl)methoxy)-6-((1S,5S)-1-(hydroxymethyl)-3-oxa-8-azabicyclo[3.2.1]octan-8-yl)-1,3,5-triazin-2-yl)-6′H-spiro[azetidine-3,4′-thieno[3,4-b]thiophene]-3′-carbonitrile] | 100 to 1000 | 10 to 100 | < 10
5 | CCN(c1nc(OC[C@@]23CCCN2C[C@H](F)C3)nc(N2CC3(C2)SCc2sc(N)c(C#N)c23)n1)[C@H](C)C(N)=O [Compound 235, (2R)-2-[[4-(2-amino-3-cyano-spiro[6H-thieno[3,4-b]thiophene-4,3′-azetidine]-1′-yl)-6-[[(2R,8S)-2-fluoro-1,2,3,5,6,7-hexahydropyrrolizin-8-yl]methoxy]-1,3,5-triazin-2-yl]-ethyl-amino]propanamide] | 100 to 1000 | < 10 | < 10
6 | CCN(c1nc(OC[C@@]23CCCN2C[C@H](F)C3)nc(N2CC3(C2)SCc2sc(N)c(C#N)c23)n1)[C@H](C)C#N [Compound 236, 2-amino-1′-[4-[[(1R)-1-cyanoethyl]-ethyl-amino]-6-[[(2R,8S)-2-fluoro-1,2,3,5,6,7-hexahydropyrrolizin-8-yl]methoxy]-1,3,5-triazin-2-yl]spiro[6H-thieno[3,4-b]thiophene-4,3′-azetidine]-3-carbonitrile; formic acid] | 10 to 100 | < 10 | < 10
7 | N#Cc1c(N)sc2c1C1(CN(c3nc(OC[C@@]45CCCN4C[C@H](F)C5)nc(N(CC(=O)O)C4(C#N)CC4)n3)C1)SC2 [Compound 259, 2-[[4-(2-amino-3-cyano-spiro[6H-thieno[3,4-b]thiophene-4,3′-azetidine]-1′-yl)-6-[[(2R,8S)-2-fluoro-1,2,3,5,6,7-hexahydropyrrolizin-8-yl]methoxy]-1,3,5-triazin-2-yl]-(1-cyanocyclopropyl)amino]acetic acid] | 1000 to 20000 |  | 
8 | N#Cc1c(N)sc2c1C1(CN(c3nc(OC[C@@]45CCCN4C[C@H](F)C5)nc(N4CCC5(CC4)COC5=O)n3)C1)SC2 [Compound 283, 2-amino-1′-[4-[[(2R,8S)-2-fluoro-1,2,3,5,6,7-hexahydropyrrolizin-8-yl]methoxy]-6-(3-oxo-2-oxa-7-azaspiro[3.5]nonan-7-yl)-1,3,5-triazin-2-yl]spiro[6H-thieno[3,4-b]thiophene-4,3′-azetidine]-3-carbonitrile] |  | 100 to 1000 | 100 to 1000
